Reference: paper PMC9106635, “Stimulation of the atypical chemokine receptor 3 (ACKR3) by a small-molecule agonist attenuates fibrosis in a preclinical liver but not lung injury model” (Cellular and Molecular Life Sciences: CMLS, 2022)

Key:
hACKR3 = hACKR3 (Homo sapiens, UniProt P25106); assay: CXCL12^AF647 competition binding, U87.CD4.ACKR3 cells
Protocol: Binding affinity to human (h)CXCR4 and human (h)ACKR3 was investigated with a competition binding assay using CXCL12^AF647 (Almac, UK) as the tracer molecule. Jurkat cells (human T lymphocytic cell line, hCXCR4 positive) or U87.CD4.ACKR3 cells (human glioblastoma cell line, hACKR3 positive) were resuspended in assay buffer [Hank’s Balanced Salt Solution (HBSS, Thermo Fisher Scientific), 20 mM HEPES buffer, 0.2% bovine serum albumin (Sigma-Aldrich), pH 7.4] at 3 × 10^5 cells per sample and treated with increasing concentrations of compound at RT for 15 min. A fixed amount of CXCL12^AF647 (2.9 nM and 1.45 nM in case of hCXCR4 and hACKR3, respectively) was added and cells were incubated at RT for 30 min protected from light. Cells were finally fixed in 1% paraformaldehyde in DPBS and the CXCL12^AF647 binding signal [i.e., mean fluorescence intensity (MFI)] was quantified by flow cytometry (FACSCanto™; Becton Dickinson). Data were analyzed with FlowJo® Software. For all samples the background MFI (i.e., autofluorescence of untreated and unlabeled cells) was subtracted. The percentage inhibition for each compound concentration was calculated relative to the positive control (i.e., untreated cells exposed to CXCL12^AF647 only). Four parameter non-linear curve fitting (GraphPad Prism 9.0.2) was used to determine the IC50 value for binding inhibition.

[1] = tested on: CCl4-induced liver fibrosis in C57BL/6J mice; assay: CCl4-induced liver fibrosis model; format: in vivo, mouse; details: 15 mg/kg/dose SC BID
Protocol: A preclinical mouse model for CCl4-induced liver fibrosis was performed at the Department of Metabolic Health Research, The Netherlands Organisation for Applied Scientific Research (TNO) (Leiden, The Netherlands). Fifty-two male C57BL/6J mice were matched on body weight prior to the study and divided into five groups (experimental study design, Supplementary Figure S1a). Starting at day 0, 10–12-week-old mice were intraperitoneally (i.p.) injected (three times a week) with mineral oil (group 1) or CCl4 (15% v/v in mineral oil, group 2–5) for a total of 28 days. At day 0, mice received subcutaneous treatment with compound 18a (15 mg/kg/dose, twice daily (BID), group 3), or corresponding vehicle control (23% HPBCD, twice daily (BID), groups 1 and 2)], or received daily gavage with either an ALK5/ALK4 kinase inhibitor [SM 16 (45 mg/kg/dose, PO, QD, group 5) or its corresponding vehicle control (β-cyclodextrin sulfobutyl ether sodium salt or captisol, PO, QD, group 4)]. Plasma samples were collected by a tail vein bleed at day 7. At day 28, mice were sacrificed using CO2 and additional plasma samples and liver lobes were collected. As a primary endpoint collagen surface area was determined on cross-sections of the lateral left lobe by picro sirius red (PSR) staining. As a secondary endpoint collagen content (hydroxyproline) of the left median lobe was analyzed using a chromogenic assay according to the manufacturer’s instructions (QuickZyme Biosciences, Leiden, The Netherlands).

[2] = tested on: mouse CXCL12 plasma levels; assay: Mouse CXCL12 plasma determination (Bio-Plex); format: in vivo
Protocol: CXCL12 plasma levels were determined using Bio-Plex Pro Mouse Chemokine SDF-1a/CXCL12 (Bio-Rad) according to the manufacturer’s protocol. Prior to the assay mouse plasma samples were centrifuged for 15 min at 1000×g at 4 °C to remove any particulates. A four-fold dilution series of mouse CXCL12, blank samples and 1:5 diluted plasma samples were prepared. A 1:1 mixture of magnetic beads (50 µL/well) and sample (50 µL/well) was added to the 96-well assay plate, which was then sealed and incubated (30 min at RT) on a plate shaker at 850 rpm protected from light. After washing three times with wash buffer 25 µL/well detection antibody was added and the plate was again incubated as described above. The plate was again washed three times (100 µL/well wash buffer) followed by the addition of streptavidin-PE (50 µL/well). The plate was sealed and incubated (10 min at RT) at 850 rpm protected from light. Finally, the plate was again washed three times and the magnetic beads were resuspended in fresh assay buffer (152 µL/well). The plate was sealed and shaken for an additional 30 s before being analyzed with the Bioplex 200 System. Data were analyzed with the Bio-Plex Manager Software.

[3] = tested on: fibrosis-associated genes (lung mRNA); assay: qRT-PCR of fibrosis-associated genes in lung tissue; format: in vivo, mouse
Protocol: Total RNA was prepared from snap-frozen liver tissue (the lateral and medial right lobes and the caudate lobe; Supplementary Figure S1a) or lung tissue (cranial right lobe; Supplementary Figure S1b) after homogenization on ice in TRIZol. For quantitative qRT-PCR, cDNA was made from 0.5 μg of RNA using the GoScript reverse transcription system (Promega) according to the manufacturer’s protocol. QRT-PCR was performed (for 40 cycles) with the Quantstudio3 Applied Biosystems (ABI) system using Sybr green (ABI) followed by melting curve analysis. Expression was calculated using the delta threshold cycle (ΔCT) method with Gapdh as reference gene (previously validated as stable house-keeping gene in the CCl4 model and in the bleomycin model, current study, not shown). Forward (F) and reverse (R) primer sequences were (5’-3’): Gapdh: F: ccgcatcttcttgtgcagt, R: […]; Col1a1: F: […], R: […]; Ackr3: F: […], R: […]; Cxcr4: F: […], R: […]; Golm1: F: […], R: […]; Lgals3: F: […], R: […]; Unc93b1: F: […], R: […]; Slc15a3: F: […], R: […]; Sec24d: F: […], R: […]; Cxcl10: F: […], R: […]; and Clec4n: F: […], R: […]. Data are expressed as mean ± sem. […] The scaled counts were base log2-transformed and data were expressed as fold-change versus the reference condition (CCl4 + 23% HPBCD). […]

[4] = design: method as in PMID 29627981; details: cited from earlier work

Chain of hACKR3 (P25106 whole entry): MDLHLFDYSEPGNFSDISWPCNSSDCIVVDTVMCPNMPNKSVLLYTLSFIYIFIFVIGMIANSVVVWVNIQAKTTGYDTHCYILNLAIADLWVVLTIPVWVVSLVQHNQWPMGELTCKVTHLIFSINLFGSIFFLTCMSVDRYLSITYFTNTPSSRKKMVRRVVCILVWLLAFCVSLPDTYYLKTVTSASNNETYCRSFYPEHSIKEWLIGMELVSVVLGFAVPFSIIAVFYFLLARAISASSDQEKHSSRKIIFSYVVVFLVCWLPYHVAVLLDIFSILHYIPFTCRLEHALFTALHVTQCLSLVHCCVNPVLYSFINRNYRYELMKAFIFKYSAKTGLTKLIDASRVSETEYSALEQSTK

IC50 (hACKR3; hACKR3, mean ± SD of three independent experiments): 20.5 ± 6.34 nM
higher hACKR3 binding affinity compared to compound 18b (hACKR3; ratio of IC50 values): five-fold
SMILES: CCc1ccn2ccnc2c1N1CCCN(C(CC(N)=O)C2CCN(C(=O)C3CC4CCC3O4)CC2)CC1 (centres unmarked) [compound 18a]
liver weight per body weight ([1]; CCl4-treated mice, day 28): not affected by compound 18a treatment
collagen levels by PSR staining ([1]; day 28, vs CCl4 + 23% HPBCD, P = 0.04): modestly, but significantly, reduced collagen levels
hydroxyproline levels in liver ([1]; day 28, vs CCl4 + 23% HPBCD, P = 0.06): near significant reduction of hydroxyproline levels
increase of plasma CXCL12-levels ([2]; liver fibrosis model, day 7, 15 mg/kg/dose SC BID): ~ threefold
plasma CXCL12 levels ([2]; liver fibrosis model, day 28, 15 mg/kg/dose SC BID): led to increased CXCL12 levels
plasma CXCL12 levels ([2]; lung fibrosis model, day 21, 15 mg/kg/dose SC BID, vs vehicle (23% HPBCD)): increased mouse CXCL12 plasma levels
Lgals3 expression in lung tissue ([3]; bleomycin model, day 21, qRT-PCR): similarly lowered
number of these 8 genes similarly affected in lung ([3]; bleomycin-exposed lungs, day 21): 1
free fraction in mouse plasma [4]: 34%
